The supplement of paper PMC10307832

Assays:
Assay in all cases: relative viability (nuclei count vs DMSO), 5 days (fraction); higher = more cells survive
LCLC-97TM1 = system: LCLC-97TM1
Method in brief: (§1)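 Five library-drug doses in √10 steps were combined with a fixed anchor-drug dose, or a single drug was given alone, by pin tool to lung cancer cell lines in 1536-well plates the day after seeding. Nuclei were stained and counted after 5 days. Relative viability is the nuclei count in treated wells over that in vehicle wells, taken as the median of duplicate plates.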

BEN = system: BEN
Method in brief: as §1

EPLC-272H = system: EPLC-272H
Method in brief: as §1

HCC-78 = system: HCC-78
Method in brief: as §1

LU99A = system: LU99A
Method in brief: as §1

LK-2 = system: LK-2
Method in brief: as §1

NCI-H727 = system: NCI-H727
Method in brief: as §1

COR-L 105 = system: COR-L 105
Method in brief: as §1

HCC-827 = system: HCC-827
Method in brief: as §1

NCI-H2087 = system: NCI-H2087
Method in brief: as §1

NCI-H1792 = system: NCI-H1792
Method in brief: as §1

LOU-NH91 = system: LOU-NH91
Method in brief: as §1

NCI-H522 = system: NCI-H522
Method in brief: as §1

EKVX = system: EKVX
Method in brief: as §1

NCI-H2126 = system: NCI-H2126
Method in brief: as §1

SW 900 = system: SW 900
Method in brief: as §1

NCI-H358 = system: NCI-H358
Method in brief: as §1

NCI-H1650 = system: NCI-H1650
Method in brief: as §1

EMC-BAC-2 = system: EMC-BAC-2
Method in brief: as §1

SK-MES-1 = system: SK-MES-1
Method in brief: as §1

SW 1573 = system: SW 1573
Method in brief: as §1

COCC1(CO)C(=O)C2CCN1CC2 (configuration not stated) [PRIMA-1MET] + Nc1ncn([C@H]2C[C@H](O)[C@@H](CO)O2)c(=O)n1 [Decitabine] (partner 2 µM)
relative viability (LCLC-97TM1; first compound 0.2 µM): 0.286
relative viability (LCLC-97TM1; first compound 0.6325 µM): 0.163
relative viability (LCLC-97TM1; first compound 2 µM): 0.209
relative viability (LCLC-97TM1; first compound 6.325 µM): 0.153
relative viability (LCLC-97TM1; first compound 20 µM): 0.246
relative viability (BEN; first compound 0.2 µM): 0.747
relative viability (BEN; first compound 0.6325 µM): 0.473
relative viability (BEN; first compound 6.325 µM): 0.652
relative viability (BEN; first compound 20 µM): 0.632
relative viability (EPLC-272H; first compound 0.2 µM): 0.353
relative viability (EPLC-272H; first compound 0.6325 µM): 0.306
relative viability (EPLC-272H; first compound 2 µM): 0.323
relative viability (EPLC-272H; first compound 6.325 µM): 0.392
relative viability (EPLC-272H; first compound 20 µM): 0.272
relative viability (HCC-78; first compound 0.2 µM): 0.643
relative viability (HCC-78; first compound 0.6325 µM): 0.598
relative viability (HCC-78; first compound 2 µM): 0.553
relative viability (HCC-78; first compound 6.325 µM): 0.697
relative viability (HCC-78; first compound 20 µM): 0.377
relative viability (LU99A; first compound 0.2 µM): 0.776
relative viability (LU99A; first compound 0.6325 µM): 0.722
relative viability (LU99A; first compound 2 µM): 0.888
relative viability (LU99A; first compound 6.325 µM): 0.674
relative viability (LU99A; first compound 20 µM): 0.51
relative viability (LK-2; first compound 0.2 µM): 0.262
relative viability (LK-2; first compound 0.6325 µM): 0.158
relative viability (LK-2; first compound 2 µM): 0.247
relative viability (LK-2; first compound 6.325 µM): 0.182
relative viability (LK-2; first compound 20 µM): 0.0846
relative viability (NCI-H727; first compound 0.2 µM): 0.594
relative viability (NCI-H727; first compound 0.6325 µM): 0.385
relative viability (NCI-H727; first compound 6.325 µM): 0.849
relative viability (NCI-H727; first compound 20 µM): 0.685
relative viability (COR-L 105; first compound 0.2 µM): 0.695
relative viability (COR-L 105; first compound 0.6325 µM): 0.619
relative viability (COR-L 105; first compound 2 µM): 0.551
relative viability (COR-L 105; first compound 6.325 µM): 0.597
relative viability (COR-L 105; first compound 20 µM): 0.179
relative viability (HCC-827; first compound 0.2 µM): 0.343
relative viability (HCC-827; first compound 0.6325 µM): 0.157
relative viability (HCC-827; first compound 2 µM): 0.302
relative viability (HCC-827; first compound 6.325 µM): 0.384
relative viability (HCC-827; first compound 20 µM): 0.305
relative viability (NCI-H2087; first compound 0.6325 µM): 0.226
relative viability (NCI-H2087; first compound 2 µM): 0.315
relative viability (NCI-H2087; first compound 6.325 µM): 0.251
relative viability (NCI-H2087; first compound 20 µM): 0.174
relative viability (NCI-H1792; first compound 0.2 µM): 0.523
relative viability (NCI-H1792; first compound 6.325 µM): 0.515
relative viability (NCI-H1792; first compound 20 µM): 0.434
relative viability (LOU-NH91; first compound 0.2 µM): 0.89
relative viability (LOU-NH91; first compound 0.6325 µM): 0.794
relative viability (LOU-NH91; first compound 2 µM): 0.806
relative viability (LOU-NH91; first compound 6.325 µM): 0.828
relative viability (LOU-NH91; first compound 20 µM): 0.613
relative viability (NCI-H522; first compound 0.2 µM): 0.648
relative viability (NCI-H522; first compound 0.6325 µM): 0.592
relative viability (NCI-H522; first compound 2 µM): 0.573
relative viability (NCI-H522; first compound 6.325 µM): 0.672
relative viability (NCI-H522; first compound 20 µM): 0.178
relative viability (EKVX; first compound 0.2 µM): 0.407
relative viability (EKVX; first compound 2 µM): 0.277
relative viability (EKVX; first compound 6.325 µM): 0.336
relative viability (EKVX; first compound 20 µM): 0.199
relative viability (NCI-H2126; first compound 0.2 µM): 0.59
relative viability (NCI-H2126; first compound 0.6325 µM): 0.579
relative viability (NCI-H2126; first compound 2 µM): 0.544
relative viability (NCI-H2126; first compound 6.325 µM): 0.631
relative viability (NCI-H2126; first compound 20 µM): 0.619
relative viability (SW 900; first compound 0.2 µM): 0.402
relative viability (SW 900; first compound 0.6325 µM): 0.386
relative viability (SW 900; first compound 6.325 µM): 0.425
relative viability (SW 900; first compound 20 µM): 0.0976
relative viability (NCI-H358; first compound 0.2 µM): 0.214
relative viability (NCI-H358; first compound 0.6325 µM): 0.154
relative viability (NCI-H358; first compound 2 µM): 0.215
relative viability (NCI-H358; first compound 6.325 µM): 0.207
relative viability (NCI-H358; first compound 20 µM): 0.183
relative viability (NCI-H1650; first compound 0.2 µM): 0.485
relative viability (NCI-H1650; first compound 0.6325 µM): 0.314
relative viability (NCI-H1650; first compound 2 µM): 0.314
relative viability (NCI-H1650; first compound 6.325 µM): 0.382
relative viability (NCI-H1650; first compound 20 µM): 0.279
relative viability (EMC-BAC-2; first compound 0.2 µM): 1
relative viability (EMC-BAC-2; first compound 0.6325 µM): 0.818
relative viability (EMC-BAC-2; first compound 2 µM): 0.967
relative viability (EMC-BAC-2; first compound 6.325 µM): 0.938
relative viability (EMC-BAC-2; first compound 20 µM): 0.928
relative viability (SK-MES-1; first compound 0.2 µM): 0.381
relative viability (SK-MES-1; first compound 0.6325 µM): 0.32
relative viability (SK-MES-1; first compound 2 µM): 0.376
relative viability (SK-MES-1; first compound 6.325 µM): 0.339
relative viability (SK-MES-1; first compound 20 µM): 0.337
relative viability (SW 1573; first compound 0.2 µM): 0.58
relative viability (SW 1573; first compound 2 µM): 0.285
relative viability (SW 1573; first compound 6.325 µM): 0.0265
relative viability (SW 1573; first compound 20 µM): 0.0223
